Results: PubChem BioAssay (NCI)
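Following 48 hours of exposure in 96-well plates, responses at five concentrations were used to interpolate endpoints linearly. GI50 = concentration required for 50% inhibition of growth. Definition used: TGI = concentration required for complete inhibition of growth.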

What was measured:
Experiment in all cases: growth of human tumour cells (NCI), 48 h
[1] = test system: 786-0 renal
[2] = test system: ACHN renal
[3] = test system: BT-549 breast
[4] = test system: CCRF-CEM leukemia
[5] = test system: DU-145 prostate
[6] = test system: EKVX NSCLC
[7] = test system: HCC-2998 colon
[8] = test system: HCT-15 colon
[9] = test system: HL-60(TB) leukemia
[10] = test system: HOP-62 NSCLC
[11] = test system: HOP-92 NSCLC
[12] = test system: HS 578T breast
[13] = test system: HT29 colon
[14] = test system: IGROV1 ovarian
[15] = test system: K-562 leukemia
[16] = test system: KM12 colon
[17] = test system: LOX IMVI melanoma
[18] = test system: M14 melanoma
[19] = test system: MALME-3M melanoma
[20] = test system: MCF7 breast
[21] = test system: MDA-MB-231 breast
[22] = test system: MDA-MB-435
[23] = test system: MOLT-4 leukemia
[24] = test system: NCI-H226 lung
[25] = test system: NCI-H23 lung
[26] = test system: NCI-H460 lung
[27] = test system: NCI-H522 lung
[28] = test system: NCI/ADR-RES ovarian
[29] = test system: OVCAR-3 ovarian
[30] = test system: OVCAR-4 ovarian
[31] = test system: OVCAR-5 ovarian
[32] = test system: PC-3 prostate
[33] = test system: RPMI-8226 leukemia
[34] = test system: SF-295 CNS
[35] = test system: SF-539 CNS
[36] = test system: SK-MEL-28 melanoma
[37] = test system: SK-MEL-5 melanoma
[38] = test system: SK-OV-3 ovarian
[39] = test system: SN12C renal
[40] = test system: SNB-19 CNS
[41] = test system: SNB-75 CNS
[42] = test system: SW-620 colon
[43] = test system: TK-10 renal
[44] = test system: U251 CNS
[45] = test system: UACC-257 melanoma
[46] = test system: UACC-62 melanoma
[47] = test system: UO-31 renal
[48] = test system: A498 renal
[49] = test system: A549 NSCLC
[50] = test system: COLO 205 colon
[51] = test system: HCT-116 colon
[52] = test system: OVCAR-8 ovarian
[53] = test system: SF-268 CNS
[54] = test system: SK-MEL-2 melanoma
[55] = test system: SR leukemia

Compound: CCc1ccc2c(c1)C(=O)c1c-2n(CCCN)c(=O)c2cc(OC)c(OC)cc12
- GI50 [1]: 1680 nM
- TGI [1]: 3110 nM
- GI50 [2]: 1680 nM
- TGI [2]: 3070 nM
- GI50 [3]: 1650 nM
- TGI [3]: 3170 nM
- GI50 [4]: 1100 nM
- TGI [4]: 2480 nM
- GI50 [5]: 1620 nM
- TGI [5]: 3070 nM
- GI50 [6]: 1920 nM
- TGI [6]: 3440 nM
- GI50 [7]: 1630 nM
- TGI [7]: 3050 nM
- GI50 [8]: 1590 nM
- TGI [8]: 3010 nM
- GI50 [9]: 1370 nM
- TGI [9]: 3470 nM
- GI50 [10]: 1840 nM
- TGI [10]: 3290 nM
- GI50 [11]: 1330 nM
- TGI [11]: 2710 nM
- GI50 [12]: 2070 nM
- TGI [12]: 3780 nM
- GI50 [13]: 1560 nM
- TGI [13]: 2980 nM
- GI50 [14]: 1760 nM
- TGI [14]: 3360 nM
- GI50 [15]: 306 nM
- TGI [15]: 907 nM
- GI50 [16]: 1410 nM
- TGI [16]: 3150 nM
- GI50 [17]: 1360 nM
- TGI [17]: 2730 nM
- GI50 [18]: 1800 nM
- TGI [18]: 3370 nM
- GI50 [19]: 500 nM
- TGI [19]: 2100 nM
- GI50 [20]: 1580 nM
- TGI [20]: 3430 nM
- GI50 [21]: 1630 nM
- TGI [21]: 3140 nM
- GI50 [22]: 1970 nM
- TGI [22]: 3550 nM
- GI50 [23]: 1750 nM
- TGI [23]: 3520 nM
- GI50 [24]: 21000 nM
- TGI [24]: 42500 nM
- GI50 [25]: 1810 nM
- TGI [25]: 3300 nM
- GI50 [26]: 1850 nM
- TGI [26]: 3860 nM
- GI50 [27]: 1590 nM
- TGI [27]: 3380 nM
- GI50 [28]: 1680 nM
- TGI [28]: 3220 nM
- GI50 [29]: 1510 nM
- TGI [29]: 2890 nM
- GI50 [30]: 1740 nM
- TGI [30]: 3200 nM
- GI50 [31]: 1820 nM
- TGI [31]: 3240 nM
- GI50 [32]: 1540 nM
- TGI [32]: 2920 nM
- GI50 [33]: 1410 nM
- TGI [33]: 3020 nM
- GI50 [34]: 1590 nM
- TGI [34]: 3080 nM
- GI50 [35]: 1640 nM
- TGI [35]: 3070 nM
- GI50 [36]: 1770 nM
- TGI [36]: 3190 nM
- GI50 [37]: 1440 nM
- TGI [37]: 2800 nM
- GI50 [38]: 2000 nM
- TGI [38]: 3580 nM
- GI50 [39]: 1730 nM
- TGI [39]: 3330 nM
- GI50 [40]: 1850 nM
- TGI [40]: 3460 nM
- GI50 [41]: 1960 nM
- TGI [41]: 4300 nM
- GI50 [42]: 1720 nM
- TGI [42]: 3330 nM
- GI50 [43]: 1740 nM
- TGI [43]: 3280 nM
- GI50 [44]: 1690 nM
- TGI [44]: 3110 nM
- GI50 [45]: 19500 nM
- TGI [45]: 43600 nM
- GI50 [46]: 1800 nM
- TGI [46]: 3320 nM
- GI50 [47]: 1740 nM
- TGI [47]: 3320 nM

Compound: CC[C@H](C)[C@H](NC(=O)[C@H]1CCCCN1C)C(=O)N(C)[C@H](CCc1nc(C(=O)N[C@@H](Cc2ccccc2)C[C@H](C)C(=O)O)cs1)C(C)C
- GI50 [1]: 476 nM
- TGI [1]: > 25000 nM
- GI50 [48]: 272 nM
- TGI [48]: > 25000 nM
- GI50 [49]: 2980 nM
- TGI [49]: > 25000 nM
- GI50 [2]: 1370 nM
- TGI [2]: > 25000 nM
- GI50 [3]: 126 nM
- TGI [3]: 6940 nM
- GI50 [4]: 85.7 nM
- TGI [4]: > 25000 nM
- GI50 [50]: 144 nM
- TGI [50]: 1830 nM
- GI50 [5]: 389 nM
- TGI [5]: > 25000 nM
- GI50 [6]: 920 nM
- TGI [6]: > 25000 nM
- GI50 [7]: 632 nM
- TGI [7]: > 25000 nM
- GI50 [51]: 133 nM
- TGI [51]: > 25000 nM
- GI50 [8]: 1340 nM
- TGI [8]: > 25000 nM
- GI50 [9]: 55.3 nM
- TGI [9]: 174 nM
- GI50 [10]: 208 nM
- TGI [10]: > 25000 nM
- GI50 [11]: 643 nM
- TGI [11]: > 25000 nM
- GI50 [12]: 123 nM
- TGI [12]: > 25000 nM
- GI50 [13]: 123 nM
- TGI [13]: > 25000 nM
- GI50 [14]: 223 nM
- TGI [14]: > 25000 nM
- GI50 [15]: 58.5 nM
- TGI [15]: > 25000 nM
- GI50 [16]: 115 nM
- TGI [16]: > 25000 nM
- GI50 [17]: 123 nM
- TGI [17]: > 25000 nM
- GI50 [20]: 27.1 nM
- TGI [20]: > 25000 nM
- GI50 [21]: 596 nM
- TGI [21]: > 25000 nM
- GI50 [22]: 12 nM
- TGI [22]: 72.4 nM
- GI50 [23]: 138 nM
- TGI [23]: > 25000 nM
- GI50 [24]: 8830 nM
- TGI [24]: > 25000 nM
- GI50 [25]: 565 nM
- TGI [25]: > 25000 nM
- GI50 [26]: 164 nM
- TGI [26]: > 25000 nM
- GI50 [27]: 35.1 nM
- TGI [27]: 579 nM
- GI50 [28]: > 25000 nM
- TGI [28]: > 25000 nM
- GI50 [29]: 37.1 nM
- TGI [29]: 181 nM
- GI50 [30]: 1940 nM
- TGI [30]: > 25000 nM
- GI50 [31]: 1820 nM
- TGI [31]: > 25000 nM
- GI50 [52]: 610 nM
- TGI [52]: > 25000 nM
- GI50 [32]: 367 nM
- TGI [32]: > 25000 nM
- GI50 [33]: 100 nM
- TGI [33]: > 25000 nM
- GI50 [53]: 184 nM
- TGI [53]: > 25000 nM
- GI50 [34]: 143 nM
- GI50 [35]: 88.8 nM
- TGI [35]: 1140 nM
- GI50 [54]: 78.9 nM
- TGI [54]: > 25000 nM
- GI50 [36]: > 25000 nM
- TGI [36]: > 25000 nM
- GI50 [37]: 87.5 nM
- TGI [37]: 3240 nM
- GI50 [38]: 585 nM
- TGI [38]: > 25000 nM
- GI50 [39]: 445 nM
- TGI [39]: > 25000 nM
- GI50 [40]: 197 nM
- TGI [40]: > 25000 nM
- GI50 [41]: 62.1 nM
- TGI [41]: > 25000 nM
- GI50 [55]: 16.6 nM
- TGI [55]: > 25000 nM
- GI50 [42]: 124 nM
- TGI [42]: > 25000 nM
- GI50 [43]: > 14900 nM
- TGI [43]: > 25000 nM
- GI50 [44]: 127 nM
- TGI [44]: > 25000 nM
- GI50 [45]: > 25000 nM
- TGI [45]: > 25000 nM
- GI50 [46]: 86.1 nM
- TGI [46]: > 25000 nM
- GI50 [47]: > 14100 nM
- TGI [47]: > 25000 nM
